Values of other authors, collected in patent publication US8177778B2, “System and method for stabilizing corneal tissue after treatment” (Avedro, Inc., priority 2009, dated 2012).

System: corneal wound healing
Conditions: rabbits after excimer laser PRK ablation, M6P drop vs control drop

O=C[C@@H](O)[C@@H](O)[C@H](O)[C@H](O)COP(=O)(O)O [M6P, Mannose 6-phosphate]
subepithelial collagen: less subepithelial collagen | corneal haze (at 4 weeks): significant reduction in corneal haze
